Data as given in US11541049B2, “Tetrahydroisoquinoline derivatives, preparation process and use thereof” (SICHUAN KELUN-BIOTECH BIOPHARMACEUTICAL CO., LTD., priority 2018, dated 2023).

Experiments:
[1] = Pharmacokinetics study in Beagle dogs, intravenous injection; format: in vivo, Beagle dog; details: dog, plasma, 0.5 mg/kg
Method: (§1) Pharmacokinetics properties were examined by administering compound of the present disclosure and the reference compound (BMS-962212) to Beagle dog through intravenous injection (IV). Blood was collected at various time points after administration. The blood was anticoagulated with EDTA-K2. Plasma samples were obtained by centrifugation, and retained at −80° C. The plasma samples were processed to precipitate the proteins and then analyzed by LC-MS/MS.
(§2) The pharmacokinetic parameters were calculated using WinNonlin 6.3 software by employing a non-compartmental model.

[2] = Repeated dose toxicity study in SD rats, intravenous infusion, daily for 14 days; format: in vivo; details: rat, in vivo, daily for 14 days, SD rats, read-out: No-observed-adverse-effect level (NOAEL)
Method: (§3) The administration was repeated daily for 14 days, while clinical observation, body weight and food intake were recorded. […] Observation by gross anatomy and examination of histopathology were also conducted.

SD rats [3] = test: as above; format: in vivo; details: 60 mg/kg
Method: as §3

[4] = Single dose toxicity study in SD rats, intravenous infusion; details: SD, rat, in vivo, iv
Method: (§4) The clinical observation was carried out for 7 days after a single dose, and the body weight of the animals were measured. On the 8th day, blood samples were taken after anesthesia for detection of hematology, blood biochemistry, coagulation and other indicators. Observation was also conducted by gross anatomy.

SD rats [5] = test: as above; details: intravenous infusion (2 ml/min)
Method: as §4

[6] = Pharmacokinetics study in male SD rats, intravenous injection; format: in vivo; details: male, SD, rat, plasma, rats, 5 mg/kg
Method: as §1, with “characteristics” for “properties”, “male SD rats” for “Beagle dog”, “centrifugation within 30 min after blood collection,” for “centrifugation,”
as §2

[7] = Pharmacokinetics study in male rabbits, intravenous injection; format: in vivo; details: male, rabbit, plasma, 1 mg/kg
Method: as §1, with “male rabbits” for “Beagle dog”
as §2

[8] = target: human coagulation factor XIa (Homo sapiens (Human), UniProt P03951); test: Inhibition of coagulation factor XIa (fluorogenic substrate, enzyme kinetic mode); format: biochemical
Chain of human coagulation factor XIa (P03951 388-625): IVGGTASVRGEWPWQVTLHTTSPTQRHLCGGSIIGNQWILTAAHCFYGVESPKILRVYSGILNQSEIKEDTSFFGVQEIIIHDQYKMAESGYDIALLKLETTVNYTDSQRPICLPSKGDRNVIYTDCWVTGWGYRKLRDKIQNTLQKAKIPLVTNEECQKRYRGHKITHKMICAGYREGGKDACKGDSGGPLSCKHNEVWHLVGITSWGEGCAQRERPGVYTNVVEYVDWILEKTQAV
Chain of human coagulation factor XIa (P03951 19-387): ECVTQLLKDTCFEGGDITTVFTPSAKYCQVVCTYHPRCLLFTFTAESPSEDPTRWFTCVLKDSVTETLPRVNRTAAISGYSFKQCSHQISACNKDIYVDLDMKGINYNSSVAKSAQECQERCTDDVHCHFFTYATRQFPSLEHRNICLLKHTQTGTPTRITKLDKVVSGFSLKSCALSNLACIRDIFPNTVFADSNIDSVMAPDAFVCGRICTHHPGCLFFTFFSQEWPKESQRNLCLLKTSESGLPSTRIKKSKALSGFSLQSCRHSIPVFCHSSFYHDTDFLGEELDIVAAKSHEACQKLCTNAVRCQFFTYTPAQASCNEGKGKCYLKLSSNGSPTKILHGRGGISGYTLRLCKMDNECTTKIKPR
Method: The following procedures can be used to determine the in vitro inhibition of human coagulation factor XIa by the compound of the present disclosure, as indicated by IC50.
Enzyme: human coagulation factor XIa; manufacturer: Haemtech;
Substrate: Boc-Ile-Glu-Gly-Arg-AMC Acetate salt; manufacturer: Bachem;
Reaction buffer: 50 mM HEPES, 145 mM NaCl, 5 mM KCl, 0.1% BSA, pH 7.4;
The test compounds were dissolved in reaction buffer at different concentrations. 4 μl of coagulation factor XIa and 4 μl of the test compound were added to a 384 well plate, incubated at room temperature for 10 minutes after mixed thoroughly, and then 4 μl of substrate was added to initiate the reaction. For reading fluorescence signal value, enzyme kinetic mode was used. The wavelength of excitation light was selected to be 380 nm, and the wavelength of emission light was selected to be 460 nm. Read once per 30 seconds, and continuously read 20 cycles. Linear regression analysis of signal value-time was performed during the linear reaction period, and the slope was the reaction rate, and the enzyme activity inhibition rate was calculated according to the following formula. The half inhibitory concentration IC50 values of the compound were fitted using GraphPad Prism 5 software, and results are shown in Table 1. Inhibition rate %=(V0−Vi)/(V0−Vblank)×100.
In the formula: V0 is the reaction rate of the control well (using the same volume of reaction buffer without adding test compound), Vi is the reaction rate of test compound, Vblank is a blank well (using the same volume of reaction buffer without adding either enzyme or test compound).

With `CN1CCN(c2cccc3c2CCN(C(=O)/C=C/c2c(-n4cnnn4)ccc(Cl)c2F)[C@@H]3C(=O)Nc2ccc(C(=O)O)cc2)C(=O)C1` [BMS-962212, reference compound] the AUC(0-inf) [1] was 846 ± 80 ng·h/mL, the AUC(0-t) [1] was 846 ± 80 ng·h/mL and the Cmax [1] was 1480 ± 40 ng/mL. It also gave a Vd [1] of 0.71 ± 0.04 L/kg, a clearance [1] of 9.91 ± 0.94 mL/min/kg and a half-life [1] of 49.8 ± 3 min. The NOAEL at 14 days [2] was < 60 mg/kg, the “Repeated dose toxicity study in SD rats: females died (10th and 12th day of the administration)” value (SD rats [3]; daily) was “female animals. Two” and the “Repeated dose toxicity study in SD rats: body weight finding” value (SD rats [3]; daily for 14 days, female animals) was “Significant weight loss”. For the same compound, the MTD at 7 days [4] was 70 mg/kg, the “Single dose toxicity study in SD rats: observation” value (SD rats [5]; 50 mg/kg) was “No abnormality was” and the “Single dose toxicity study in SD rats: observation” value (SD rats [5]; 70 mg/kg) was “obviously hypoactive”. The “Single dose toxicity study in SD rats: observation” value (SD rats [5]; 75 mg/kg) was “high mortality”, the “Single dose toxicity study in SD rats: observation” value (SD rats [5]; 75 mg/kg, listed as Reference compound) was “Death of the animals” and the AUC(0-inf) [6] was 4090 ± 654 ng·h/mL. The AUC(0-t) [6] was 4090 ± 654 ng·h/mL, the Cmax [6] was 11100 ± 1850 ng/mL and the clearance [6] was 20.7 ± 2.7 mL/min/kg. The half-life [6] was 11.4 ± 1.8 min, the AUC(0-inf) [7] was 484 ± 38 ng·h/mL and the AUC(0-t) [7] was 476 ± 35 ng·h/mL. For the same compound, the Cmax [7] was 1470 ± 145 ng/mL, the Vd [7] was 1.28 ± 0.28 L/kg and the clearance [7] was 34.6 ± 2.8 mL/min/kg. It also gave a half-life [7] of 25.8 ± 6.6 min.

Work on `CC(C)[C@H](N)C(=O)N1CC=C(c2cccc3c2CCN(C(=O)[C@H]2CC(c4cccc(Cl)c4F)=NO2)[C@@H]3C(=O)Nc2ccc(C(=O)O)cc2)CC1` [Example 1, 4-((S)-5-(1-((S)-2-amino-3-methylbutanoyl)-1,2,3,6-tetrahydropyridin-4-yl)-2-((R)-3-(3-chloro-2-fluorophenyl)-4,5-dihydroisoxazole-5-carbonyl)-1,2,3,4-tetrahydroisoquinoline-1-carboxamido)benzoic acid] yielded an IC50 [8] of 0.33 ± 0.06 nM.

For `N[C@@H](CCC(=O)N1CC=C(c2cccc3c2CCN(C(=O)[C@H]2CC(c4cccc(Cl)c4F)=NO2)[C@@H]3C(=O)Nc2ccc(C(=O)O)cc2)CC1)C(=O)O` [Example 2, 4-((S)-5-(1-((S)-4-amino-4-carboxybutanoyl)-1,2,3,6-tetrahydropyridin-4-yl)-2-((R)-3-(3-chloro-2-fluorophenyl)-4,5-dihydroisoxazole-5-carbonyl)-1,2,3,4-tetrahydroisoquinoline-1-carboxamido)benzoic acid], the IC50 [8] was 0.21 ± 0.02 nM.

Work on `N[C@@H](CCC(=O)O)C(=O)N1CC=C(c2cccc3c2CCN(C(=O)[C@H]2CC(c4cccc(Cl)c4F)=NO2)[C@@H]3C(=O)Nc2ccc(C(=O)O)cc2)CC1` [Example 3, 4-((S)-5-(1-((S)-2-amino-4-carboxybutanoyl)-1,2,3,6-tetrahydropyridin-4-yl)-2-((R)-3-(3-chloro-2-fluorophenyl)-4,5-dihydroisoxazole-5-carbonyl)-1,2,3,4-tetrahydroisoquinoline-1-carboxamido)benzoic acid] yielded an IC50 [8] of 0.29 ± 0.04 nM.

`C[C@H](N)C(=O)N1CC=C(c2cccc3c2CCN(C(=O)[C@H]2CC(c4cccc(Cl)c4F)=NO2)[C@@H]3C(=O)Nc2ccc(C(=O)O)cc2)CC1` [Example 4, 4-((S)-5-(1-((S)-2-aminopropanoyl)-1,2,3,6-tetrahydropyridin-4-yl)-2-((R)-3-(3-chloro-2-fluorophenyl)-4,5-dihydroisoxazole-5-carbonyl)-1,2,3,4-tetrahydroisoquinoline-1-carboxamido)benzoic acid] gave an IC50 [8] of 0.85 ± 0.03 nM.
